Results published in patent US4350692A, “3,7-Disubstituted-3-cephem-4-carboxylic acids” (Fujisawa Pharmaceutical Co., Ltd., priority 1976, dated 1982).
≈ marks a conversion by molar mass, not a printed value. Where two headings read alike, the source gives them in different places.

Tested on: Pseudomonus aeruginosa NCTC-10490
Assay: In vitro activity, two-fold agar-plate dilution method, minimal inhibitory concentration (MIC)
Assay type: cell-based
Conditions: read-out: MIC (minimal inhibitory concentration)
[1] = heart infusion agar (HI-agar), overnight culture in Trypticase-soy broth (10^8 viable cells per ml.), incubation at 37° C. for 20 hours

Row | SMILES | MIC [1] | MIC (20 h)
1 | CC(=O)OCC1=C(C(=O)O)N2C(=O)[C@@H](NC(=O)[C@H](NC(=O)COc3ccc(Cl)cc3C(=O)c3ccc(NC(=O)CSCC(=O)O)cc3)c3ccccc3)[C@H]2SC1 [Example 69, 7-[D-N-[2-{2-(4-carboxymethylthioacetamidobenzoyl)-4-chlorophenoxy}acetyl]-2-phenylglycinamido]cephalosporanic acid] | 6.25 µg/mL (≈ 7.57 µM) | 
2 | Cn1nnnc1SCC1=C(C(=O)O)N2C(=O)C(NC(=O)[C@H](NC(=O)c3cc(C#N)c(Cl)cc3O)c3ccccc3)C2SC1 (stereo partly drawn) [Example 6, 7-[D-N-(2-hydroxy-4-chloro-5-cyanobenzoyl)-2-phenylglycinamido]-3-(1-methyl-1H-tetrazol-5-ylthiomethyl)-3-cephem-4-carboxylic acid] |  | 1.56 µg/mL (≈ 2.43 µM)
3 | Cn1nnnc1SCC1=C(C(=O)O)N2C(=O)C(NC(=O)[C@H](NC(=O)c3cc([N+](=O)[O-])ccc3O)c3ccccc3)C2SC1 (stereo partly drawn) [Example 3, 7-[D-N-(2-hydroxy-5-nitrobenzoyl)-2-phenylglycinamido]-3-(1-methyl-1H-tetrazol-5-ylthiomethyl)-3-cephem-4-carboxylic acid] | 0.78 µg/mL (≈ 1.24 µM) | 
4 | Cn1nnnc1SCC1=C(C(=O)O)N2C(=O)C(NC(=O)[C@H](NC(=O)c3cc(Cl)cc(Cl)c3O)c3ccccc3)C2SC1 (stereo partly drawn) [Example 2, 7-[D-N-(2-hydroxy-3,5-dichlorobenzoyl)-2-phenylglycinamido]-3-(1-methyl-1H-tetrazol-5-ylthiomethyl)-3-cephem-4-carboxylic acid] | 0.78 µg/mL (≈ 1.2 µM) | 
5 | CC(=O)c1ccc(O)c(C(=O)N[C@@H](C(=O)NC2C(=O)N3C(C(=O)O)=C(CSc4nnnn4C)CSC23)c2ccccc2)c1 (stereo partly drawn) [Example 5, 7-[D-N-(2-hydroxy-5-acetylbenzoyl)-2-phenylglycinamido]-3-(1-methyl-1H-tetrazol-5-ylthiomethyl)-3-cephem-4-carboxylic acid] | 0.78 µg/mL (≈ 1.25 µM) | 
6 | Cn1nnnc1SCC1=C(C(=O)O)N2C(=O)[C@@H](NC(=O)[C@H](NC(=O)c3cc(Cl)ccc3O)c3ccccc3)[C@H]2SC1 [Example 1, 7-[D-N-(2-hydroxy-5-chlorobenzoyl)-2-phenylglycinamido]-3-(1-methyl-1H-tetrazol-5-ylthiomehyl)-3-cephem-4-carboxylic acid] |  | 1.56 µg/mL (≈ 2.53 µM)
7 | CN1CCN(S(=O)(=O)c2ccc(O)c(C(=O)N[C@@H](C(=O)NC3C(=O)N4C(C(=O)O)=C(CSc5nnnn5C)CSC34)c3ccccc3)c2)CC1 (stereo partly drawn) [Example 52, 7-[D-N-{2-hydroxy-5-(4-methyl-1-piperazinylsulfonyl)benzoyl}-2-phenylglycinamido]-3-(1-methyl-1H-tetrazol-5-ylthiomethyl)-3-cephem-4-carboxylic acid] |  | 1.56 µg/mL (≈ 2.1 µM)
8 | Cn1nnnc1SCC1=C(C(=O)O)N2C(=O)C(NC(=O)[C@H](NC(=O)c3cc(C(N)=O)c(Cl)cc3O)c3ccccc3)C2SC1 (stereo partly drawn) [Example 7, 7-[D-N-(2-hydroxy-4-chloro-5-carbamoylbenzoyl)-2-phenylglycinamido]-3-(1-methyl-1H-tetrazol-5-ylthiomethyl)-3-cephem-4-carboxylic acid] | 0.78 µg/mL (≈ 1.18 µM) | 
9 | Cc1nnc(SCC2=C(C(=O)O)N3C(=O)C(NC(=O)[C@H](NC(=O)[C@H](O)c4ccccc4)c4ccccc4)C3SC2)s1 (stereo partly drawn) [Example 56, 7-[D-N-(D-mandeloyl)-2-phenylglycinamido]-3-(5-methyl-1,3,4-thiadiazol-2-ylthiomethyl)-3-cephem-4-carboxylic acid] | 12.5 µg/mL (≈ 20.4 µM) | 
10 | Cn1nnnc1SCC1=C(C(=O)O)N2C(=O)C(NC(=O)[C@H](NC(=O)COc3cc(Cl)cc(Cl)c3O)c3ccccc3)C2SC1 (stereo partly drawn) [Example 63, 7-[D-N-{2-(2-hydroxy-3,5-dichlorophenoxy)acetyl}-2-phenylglycinamido]-3-(1-methyl-1H-tetrazol-5-ylthiomethyl)-3-cephem-4-carboxylic acid] | 6.25 µg/mL (≈ 9.18 µM) | 
11 | Cn1nnnc1SCC1=C(C(=O)O)N2C(=O)C(NC(=O)[C@H](NC(=O)c3cc(S(N)(=O)=O)ccc3O)c3ccccc3)C2SC1 (stereo partly drawn) [Example 4, 7-[D-N-(2-hydroxy-5-sulfamoylbenzoyl)-2-phenylglycinamido]-3-(1-methyl-1H-tetrazol-5-ylthiomethyl)-3-cephem-4-carboxylic acid] | 0.78 µg/mL (≈ 1.18 µM) | 
12 | CCOC(=O)CS(=O)(=O)NCc1nnc(SCC2=C(C(=O)O)N3C(=O)C(NC(=O)[C@H](NC(=O)c4cc(Cl)cc(Cl)c4O)c4ccccc4)C3SC2)s1 (stereo partly drawn) [Example 53, 7-[D-N-(2-hydroxy-3,5-dichlorobenzoyl)-2-phenylglycinamido]-3-(5-ethoxycarbonylmesylaminomethyl-1,3,4-thiadiazol-2-ylthiomethyl)-3-cephem-4-carboxylic acid] |  | 1.56 µg/mL (≈ 1.88 µM)
13 | CC(=O)OCC1=C(C(=O)O)N2C(=O)[C@@H](NC(=O)[C@H](NC(=O)COc3ccc(Cl)cc3C(=O)c3ccccc3)c3ccccc3)[C@H]2SC1 [Example 67, 7-[D-N-{2-(2-benzoyl-4-chlorophenoxy)acetyl}-2-phenylglycinamido]cephalosporanic acid] |  | 1.56 µg/mL (≈ 2.3 µM)
14 | Cn1nnnc1SCC1=C(C(=O)O)N2C(=O)C(NC(=O)[C@H](NC(=O)c3cc([N+](=O)[O-])cc([N+](=O)[O-])c3O)c3ccccc3)C2SC1 (stereo partly drawn) [Example 9, 7-[D-N-(2-hydroxy-3,5-dinitrobenzoyl)-2-phenylglycinamido]-3-(1-methyl-1H-tetrazol-5-ylthiomethyl)-3-cephem-4-carboxylic acid] |  | 1.56 µg/mL (≈ 2.32 µM)
15 | Cn1nnnc1SCC1=C(C(=O)O)N2C(=O)C(NC(=O)[C@H](NC(=O)c3cc(S(N)(=O)=O)c(Cl)cc3O)c3ccccc3)C2SC1 (stereo partly drawn) [Example 8, 7-[D-N-(2-hydroxy-4-chloro-5-sulfamoylbenzoyl)-2-phenylglycinamido]-3-(1-methyl-1H-tetrazol-5-ylthiomethyl)-3-cephem-4-carboxylic acid] | 0.78 µg/mL (≈ 1.12 µM) | 
16 | Cn1nnnc1SCC1=C(C(=O)O)N2C(=O)C(NC(=O)[C@H](NC(=O)c3ccc(O)cc3O)c3ccccc3)C2SC1 (stereo partly drawn) [Example 25, 7-[D-N-(2,4-dihydroxybenzoyl)-2-phenylglycinamido]-3-(1-methyl-1H-tetrazol-5-ylthiomethyl)-3-cephem-4-carboxylic acid] |  | 1.56 µg/mL (≈ 2.61 µM)
